# Test results from patent US9695155B2, “Herbicidal substituted pyrimidinyloxy benzene compounds” (E. I. DU PONT DE NEMOURS AND COMPANY, priority 2013, dated 2017).
# How the values were obtained:
# [1] = test system: galium; assay: Test C postemergence; assay type: in vivo, Galium aparine; conditions: for Plant response rating (0 to 100), Galium: 16 g ai/ha, 0 is no effect, 100 is complete control; for Galium plant response rating: 31 g ai/ha, 13 to 15 days; for Galium plant response rating / Plant response rating, Galium: scale 0 to 100 (0 no effect, 100 complete control)
# In short: (§1)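 Visual ratings on a 0–100 scale (100 = complete control) were made versus untreated controls after 13–15 greenhouse days. Chemicals in a surfactant-containing non-phytotoxic solvent were applied either preemergence to seeds in loam–sand soil or postemergence to 1- to 4-leaf plants 2–18 cm tall.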
# [2] = test system: soybean; assay: Test C preemergence; assay type: in vivo, Glycine max; conditions: preemergence
# In short: as §1
# [3] = test system: giant foxtail; assay: Test A preemergence; assay type: in vivo, Setaria faberii
# In short: (§2)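 Scoring: eye-based comparison with untreated controls, 0 for no effect through 100 for complete control, at about day 10. Treatments: directed soil spray preemergence; foliar spray postemergence on 2–10 cm plants at the one- to two-leaf stage. Medium: loam soil with sand.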
# [4] = test system: morningglory; assay: Test C preemergence; assay type: in vivo, Ipomoea coccinea; conditions: preemergence
# In short: as §1
# [5] = test system: soybean; assay: Test C postemergence; assay type: in vivo, Glycine max; conditions: for Plant response rating (0 to 100), Soybean: 16 g ai/ha, 0 is no effect, 100 is complete control; for Soybean plant response rating: 31 g ai/ha, 13 to 15 days; for Soybean plant response rating / Plant response rating, Soybean: scale 0 to 100 (0 no effect, 100 complete control)
# In short: as §1
# [6] = test system: galium; assay: Test C preemergence; assay type: in vivo, Galium aparine; conditions: for Galium plant response rating: preemergence; for Plant response rating, Galium: Preemergence, 31 g ai/ha, scale 0 to 100, 0 no effect, 100 complete control
# In short: as §1
# [7] = test system: velvetleaf; assay: Test C postemergence; assay type: in vivo, Abutilon theophrasti; conditions: for Plant response rating (0 to 100), Velvetleaf: 16 g ai/ha, 0 is no effect, 100 is complete control; for Velvetleaf plant response rating: 31 g ai/ha, 13 to 15 days; for Velvetleaf plant response rating / Plant response rating, Velvetleaf: scale 0 to 100 (0 no effect, 100 complete control)
# In short: as §1
# [8] = test system: pigweed; assay: Test A postemergence; assay type: in vivo, Amaranthus retroflexus
# In short: as §2
# [9] = test system: johnsongrass; assay: Test C postemergence; assay type: in vivo, Sorghum halepense; conditions: for Plant response rating (0 to 100), Johnsongrass: 16 g ai/ha, 0 is no effect, 100 is complete control; for Johnsongrass plant response rating: 31 g ai/ha, 13 to 15 days; for Johnsongrass plant response rating / Plant response rating, Johnsongrass: scale 0 to 100 (0 no effect, 100 complete control)
# In short: as §1
# [10] = test system: waterhemp; assay: Test C preemergence; assay type: in vivo, Amaranthus rudis; conditions: preemergence
# In short: as §1
# [11] = test system: barnyardgrass; assay: Test B flooded paddy test; assay type: in vivo, Echinochloa crus-galli; conditions: Flood, 250 g ai/ha; 0 to 100 scale where 0 is no effect and 100 is complete control
# In short: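 Compound added straight to paddy water, with pots kept flooded 3 cm above soil, on plants grown to the 2-leaf stage. Visual scoring 0-100 (100 = complete control) against untreated controls after 13 to 15 greenhouse days.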
# [12] = test system: oilseed rape; assay: Test C preemergence; assay type: in vivo, Brassica napus; conditions: preemergence
# In short: as §1
# [13] = test system: barnyardgrass; assay: Test C preemergence; assay type: in vivo, Echinochloa crus-galli; conditions: for Barnyardgrass plant response rating: preemergence; for Plant response rating, Barnyardgrass: Preemergence, 31 g ai/ha, scale 0 to 100, 0 no effect, 100 complete control
# In short: as §1
# [14] = test system: chickweed; assay: Test C postemergence; assay type: in vivo, Stellaria media; conditions: for Plant response rating (0 to 100), Chickweed: 16 g ai/ha, 0 is no effect, 100 is complete control; for Chickweed plant response rating: 31 g ai/ha, 13 to 15 days; for Chickweed plant response rating / Plant response rating, Chickweed: scale 0 to 100 (0 no effect, 100 complete control)
# In short: as §1
# [15] = test system: barnyardgrass; assay: Test A postemergence; assay type: in vivo, Echinochloa crus-galli
# In short: as §2
# [16] = 125 g ai/ha, postemergence, visual rating
# [17] = 16 g ai/ha, scale 0 to 100 (0 no effect, 100 complete control)
# [18] = 62 g ai/ha, scale 0 (no effect) to 100 (complete control)
# [19] = 125 g ai/ha, scale 0 (no effect) to 100 (complete control)
# [20] = 125 g ai/ha, 0 to 100 scale where 0 is no effect and 100 is complete control
# [21] = 500 g ai/ha, 0 to 100 scale where 0 is no effect and 100 is complete control
# [22] = 1000 g ai/ha, 0 to 100 scale, 0 no effect, 100 complete control
smiles,measurement,setting,value
CCCOc1cnn(-c2c(C#N)cccc2Oc2ncc(Cl)cn2)c1 [Compound 150],"Plant response rating (0 to 100), Galium",[1]; postemergence,60
same,Galium plant response rating,"[1]; postemergence, visual rating",65
same,"Plant response rating, Galium",[1]; [16],80
same,"Plant response rating, Galium","[1]; Postemergence, 62 g ai/ha",75
same,Soybean plant response rating,[2]; [17],0
same,Soybean plant response rating,[2]; [18],45
same,Soybean plant response rating,[2]; [19],90
same,"Plant response rating, Foxtail, Giant",[3]; [20],100
same,"Foxtail, Giant plant response rating",[3]; [21],100
same,Morningglory plant response rating,[4]; [17],0
same,Morningglory plant response rating,[4]; [18],45
same,Morningglory plant response rating,[4]; [19],75
same,"Plant response rating (0 to 100), Soybean",[5]; postemergence,65
same,Soybean plant response rating,"[5]; postemergence, visual rating",65
same,"Plant response rating, Soybean",[5]; [16],95
same,"Plant response rating, Soybean","[5]; Postemergence, 62 g ai/ha",65
same,Galium plant response rating,[6]; [17],0
same,Galium plant response rating,[6]; [18],90
same,Galium plant response rating,[6]; [19],100
same,"Plant response rating, Galium",[6],80
same,"Plant response rating (0 to 100), Velvetleaf",[7]; postemergence,20
same,Velvetleaf plant response rating,"[7]; postemergence, visual rating",25
same,"Plant response rating, Velvetleaf",[7]; [16],30
same,"Plant response rating, Velvetleaf","[7]; Postemergence, 62 g ai/ha",30
same,Pigweed plant response rating,[8]; [20],100
same,"Plant response rating, Pigweed",[8]; [21],100
same,"Plant response rating (0 to 100), Johnsongrass",[9]; postemergence,0
same,Johnsongrass plant response rating,"[9]; postemergence, visual rating",0
same,"Plant response rating, Johnsongrass",[9]; [16],5
same,"Plant response rating, Johnsongrass","[9]; Postemergence, 62 g ai/ha",5
same,Waterhemp plant response rating,[10]; [17],20
same,Waterhemp plant response rating,[10]; [18],98
same,Waterhemp plant response rating,[10]; [19],98
same,"Plant response rating, Barnyardgrass",[11],0
same,Oilseed Rape plant response rating,[12]; [17],0
same,Oilseed Rape plant response rating,[12]; [18],90
same,Oilseed Rape plant response rating,[12]; [19],100
same,Barnyardgrass plant response rating,[13]; [17],5
same,Barnyardgrass plant response rating,[13]; [18],65
same,Barnyardgrass plant response rating,[13]; [19],80
same,"Plant response rating, Barnyardgrass",[13],20
same,"Plant response rating (0 to 100), Chickweed",[14]; postemergence,50
same,Chickweed plant response rating,"[14]; postemergence, visual rating",65
same,"Plant response rating, Chickweed",[14]; [16],70
same,"Plant response rating, Chickweed","[14]; Postemergence, 62 g ai/ha",65
same,Barnyardgrass plant response rating,[15]; [20],100
FCc1cn(-c2c(F)cccc2Oc2ncc(Cl)cn2)nn1 [Compound 154],"Plant response rating (0 to 100), Galium",[1]; postemergence,60
same,Galium plant response rating,"[1]; postemergence, visual rating",65
same,"Plant response rating, Galium",[1]; [16],85
same,"Plant response rating, Galium","[1]; Postemergence, 62 g ai/ha",80
same,Soybean plant response rating,[2]; [17],50
same,Soybean plant response rating,[2]; [18],80
same,Soybean plant response rating,[2]; [19],95
same,"Foxtail, Giant plant response rating","[3]; 1000 g ai/ha, 0 to 100 scale, 0 no effect, 100 complete control, approx. 10 days",100
same,Morningglory plant response rating,[4]; [17],10
same,Morningglory plant response rating,[4]; [18],50
same,Morningglory plant response rating,[4]; [19],85
same,"Plant response rating (0 to 100), Soybean",[5]; postemergence,40
same,Soybean plant response rating,"[5]; postemergence, visual rating",65
same,"Plant response rating, Soybean",[5]; [16],75
same,"Plant response rating, Soybean","[5]; Postemergence, 62 g ai/ha",65
same,Galium plant response rating,[6]; [17],80
same,Galium plant response rating,[6]; [18],95
same,Galium plant response rating,[6]; [19],95
same,"Plant response rating, Galium",[6],95
same,"Plant response rating (0 to 100), Velvetleaf",[7]; postemergence,25
same,Velvetleaf plant response rating,"[7]; postemergence, visual rating",45
same,"Plant response rating, Velvetleaf",[7]; [16],80
same,"Plant response rating, Velvetleaf","[7]; Postemergence, 62 g ai/ha",70
same,"Plant response rating, Pigweed",[8]; [22],100
same,"Plant response rating (0 to 100), Johnsongrass",[9]; postemergence,0
same,Johnsongrass plant response rating,"[9]; postemergence, visual rating",0
same,"Plant response rating, Johnsongrass",[9]; [16],5
same,"Plant response rating, Johnsongrass","[9]; Postemergence, 62 g ai/ha",0
same,Waterhemp plant response rating,[10]; [17],100
same,Waterhemp plant response rating,[10]; [18],100
same,Waterhemp plant response rating,[10]; [19],100
same,"Plant response rating, Barnyardgrass",[11],20
same,Oilseed Rape plant response rating,[12]; [17],98
same,Oilseed Rape plant response rating,[12]; [18],100
same,Oilseed Rape plant response rating,[12]; [19],100
same,Barnyardgrass plant response rating,[13]; [17],5
same,Barnyardgrass plant response rating,[13]; [18],70
same,Barnyardgrass plant response rating,[13]; [19],100
same,"Plant response rating, Barnyardgrass",[13],25
same,"Plant response rating (0 to 100), Chickweed",[14]; postemergence,5
same,Chickweed plant response rating,"[14]; postemergence, visual rating",5
same,"Plant response rating, Chickweed",[14]; [16],60
same,"Plant response rating, Chickweed","[14]; Postemergence, 62 g ai/ha",10
same,"Plant response rating, Barnyardgrass",[15]; [22],100
